# Measured values from PubChem BioAssay (NCI).
#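 Method: 48-hour compound exposure of cells in 96-well plates, five concentrations, linear interpolation of endpoints. At the GI50, growth is halved. TGI denotes the concentration required for complete inhibition of growth.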
# Test system: NCI-H23 lung
# Assay: inhibition of tumour cell growth, NCI panel, 48 h
SMILES,TGI [µM],GI50 [µM]
CN(CC(=O)O)c1ncc2c(n1)-c1ccccc1SC2,> 100,–
CC(=O)Nc1ccc(C(=O)NN2C(=O)CSC2c2ccc([N+](=O)[O-])cc2)cc1 (centres undefined),> 100,–
CC(=O)c1ccc(NCc2cc(O)ccc2O)cc1,48.9,–
CN(C(=O)C1=CCC2(CC1)OCCO2)c1ccccc1OS(=O)(=O)C(F)(F)F,> 100,–
CC(C)(C)NC(NC(C)(C)C)=C(/C=C(/Cl)[N+](=O)[O-])[N+](=O)[O-],> 100,–
O=C(Cc1ccc(/C=C/C(=O)c2ncc[nH]2)cc1)Nc1cc(F)c(F)c(F)c1,9.11,3.82

# Test system: NCI-H460 lung
# Assay: inhibition of tumour cell growth, NCI panel, 48 h
SMILES,TGI [µM],GI50 [µM]
CN(CC(=O)O)c1ncc2c(n1)-c1ccccc1SC2,> 100,–
CC(=O)Nc1ccc(C(=O)NN2C(=O)CSC2c2ccc([N+](=O)[O-])cc2)cc1 (centres undefined),> 100,–
CC(=O)c1ccc(NCc2cc(O)ccc2O)cc1,39.9,–
CN(C(=O)C1=CCC2(CC1)OCCO2)c1ccccc1OS(=O)(=O)C(F)(F)F,> 100,–
CC(C)(C)NC(NC(C)(C)C)=C(/C=C(/Cl)[N+](=O)[O-])[N+](=O)[O-],> 100,–
O=C(Cc1ccc(/C=C/C(=O)c2ncc[nH]2)cc1)Nc1cc(F)c(F)c(F)c1,11.7,3.31

# Test system: NCI-H522 lung
# Assay: inhibition of tumour cell growth, NCI panel, 48 h
SMILES,TGI [µM],GI50 [µM]
CN(CC(=O)O)c1ncc2c(n1)-c1ccccc1SC2,> 100,–
CC(=O)c1ccc(NCc2cc(O)ccc2O)cc1,> 100,–
CC(C)(C)NC(NC(C)(C)C)=C(/C=C(/Cl)[N+](=O)[O-])[N+](=O)[O-],> 100,–
O=C(Cc1ccc(/C=C/C(=O)c2ncc[nH]2)cc1)Nc1cc(F)c(F)c(F)c1,8.01,3.46

# Test system: NCI/ADR-RES ovarian
# Assay: inhibition of tumour cell growth, NCI panel, 48 h
SMILES,TGI [µM],GI50 [µM]
CN(CC(=O)O)c1ncc2c(n1)-c1ccccc1SC2,> 100,–
CC(=O)Nc1ccc(C(=O)NN2C(=O)CSC2c2ccc([N+](=O)[O-])cc2)cc1 (centres undefined),> 100,–
CC(=O)c1ccc(NCc2cc(O)ccc2O)cc1,> 100,–
CN(C(=O)C1=CCC2(CC1)OCCO2)c1ccccc1OS(=O)(=O)C(F)(F)F,> 100,–
O=C(Cc1ccc(/C=C/C(=O)c2ncc[nH]2)cc1)Nc1cc(F)c(F)c(F)c1,> 25,7.26

# Test system: OVCAR-3 ovarian
# Assay: inhibition of tumour cell growth, NCI panel, 48 h
SMILES,TGI [µM],GI50 [µM]
CC(=O)Nc1ccc(C(=O)NN2C(=O)CSC2c2ccc([N+](=O)[O-])cc2)cc1 (centres undefined),> 100,–
CC(=O)c1ccc(NCc2cc(O)ccc2O)cc1,19.8,–
CN(C(=O)C1=CCC2(CC1)OCCO2)c1ccccc1OS(=O)(=O)C(F)(F)F,> 100,–
CC(C)(C)NC(NC(C)(C)C)=C(/C=C(/Cl)[N+](=O)[O-])[N+](=O)[O-],49.7,–
O=C(Cc1ccc(/C=C/C(=O)c2ncc[nH]2)cc1)Nc1cc(F)c(F)c(F)c1,6.14,2.81

# Test system: OVCAR-4 ovarian
# Assay: inhibition of tumour cell growth, NCI panel, 48 h
SMILES,TGI [µM],GI50 [µM]
CN(CC(=O)O)c1ncc2c(n1)-c1ccccc1SC2,> 100,–
CC(=O)Nc1ccc(C(=O)NN2C(=O)CSC2c2ccc([N+](=O)[O-])cc2)cc1 (centres undefined),> 100,–
CC(=O)c1ccc(NCc2cc(O)ccc2O)cc1,34.4,–
CN(C(=O)C1=CCC2(CC1)OCCO2)c1ccccc1OS(=O)(=O)C(F)(F)F,> 100,–
CC(C)(C)NC(NC(C)(C)C)=C(/C=C(/Cl)[N+](=O)[O-])[N+](=O)[O-],> 100,–
O=C(Cc1ccc(/C=C/C(=O)c2ncc[nH]2)cc1)Nc1cc(F)c(F)c(F)c1,> 25,4.81

# Test system: OVCAR-5 ovarian
# Assay: inhibition of tumour cell growth, NCI panel, 48 h
SMILES,TGI [µM],GI50 [µM]
CN(CC(=O)O)c1ncc2c(n1)-c1ccccc1SC2,> 100,–
CC(=O)Nc1ccc(C(=O)NN2C(=O)CSC2c2ccc([N+](=O)[O-])cc2)cc1 (centres undefined),> 100,–
CC(=O)c1ccc(NCc2cc(O)ccc2O)cc1,44.2,–
CN(C(=O)C1=CCC2(CC1)OCCO2)c1ccccc1OS(=O)(=O)C(F)(F)F,> 100,–
CC(C)(C)NC(NC(C)(C)C)=C(/C=C(/Cl)[N+](=O)[O-])[N+](=O)[O-],> 100,–
O=C(Cc1ccc(/C=C/C(=O)c2ncc[nH]2)cc1)Nc1cc(F)c(F)c(F)c1,8.84,4.58

# Test system: OVCAR-8 ovarian
# Assay: inhibition of tumour cell growth, NCI panel, 48 h
SMILES,TGI [µM],GI50 [µM]
CN(CC(=O)O)c1ncc2c(n1)-c1ccccc1SC2,> 100,–
CC(=O)Nc1ccc(C(=O)NN2C(=O)CSC2c2ccc([N+](=O)[O-])cc2)cc1 (centres undefined),> 100,–
CC(=O)c1ccc(NCc2cc(O)ccc2O)cc1,88.1,–
CN(C(=O)C1=CCC2(CC1)OCCO2)c1ccccc1OS(=O)(=O)C(F)(F)F,> 100,–
CC(C)(C)NC(NC(C)(C)C)=C(/C=C(/Cl)[N+](=O)[O-])[N+](=O)[O-],> 100,–
O=C(Cc1ccc(/C=C/C(=O)c2ncc[nH]2)cc1)Nc1cc(F)c(F)c(F)c1,> 25,5.58

# Test system: PC-3 prostate
# Assay: inhibition of tumour cell growth, NCI panel, 48 h
SMILES,TGI [µM],GI50 [µM]
CN(CC(=O)O)c1ncc2c(n1)-c1ccccc1SC2,> 100,–
CC(=O)c1ccc(NCc2cc(O)ccc2O)cc1,41.3,–
CN(C(=O)C1=CCC2(CC1)OCCO2)c1ccccc1OS(=O)(=O)C(F)(F)F,> 100,–
CC(C)(C)NC(NC(C)(C)C)=C(/C=C(/Cl)[N+](=O)[O-])[N+](=O)[O-],> 100,–
O=C(Cc1ccc(/C=C/C(=O)c2ncc[nH]2)cc1)Nc1cc(F)c(F)c(F)c1,9.12,3.8

# Test system: RPMI-8226 leukemia
# Assay: inhibition of tumour cell growth, NCI panel, 48 h
SMILES,TGI [µM],GI50 [µM]
CN(CC(=O)O)c1ncc2c(n1)-c1ccccc1SC2,> 100,–
CC(=O)Nc1ccc(C(=O)NN2C(=O)CSC2c2ccc([N+](=O)[O-])cc2)cc1 (centres undefined),> 100,–
CC(=O)c1ccc(NCc2cc(O)ccc2O)cc1,> 100,–
CN(C(=O)C1=CCC2(CC1)OCCO2)c1ccccc1OS(=O)(=O)C(F)(F)F,> 100,–
CC(C)(C)NC(NC(C)(C)C)=C(/C=C(/Cl)[N+](=O)[O-])[N+](=O)[O-],> 100,–
O=C(Cc1ccc(/C=C/C(=O)c2ncc[nH]2)cc1)Nc1cc(F)c(F)c(F)c1,1.79,0.665

# Test system: RXF 393 renal
# Assay: inhibition of tumour cell growth, NCI panel, 48 h
SMILES,TGI [µM],GI50 [µM]
CC(=O)Nc1ccc(C(=O)NN2C(=O)CSC2c2ccc([N+](=O)[O-])cc2)cc1 (centres undefined),> 100,–
CC(=O)c1ccc(NCc2cc(O)ccc2O)cc1,27.9,–
CN(C(=O)C1=CCC2(CC1)OCCO2)c1ccccc1OS(=O)(=O)C(F)(F)F,> 100,–
CC(C)(C)NC(NC(C)(C)C)=C(/C=C(/Cl)[N+](=O)[O-])[N+](=O)[O-],> 100,–
O=C(Cc1ccc(/C=C/C(=O)c2ncc[nH]2)cc1)Nc1cc(F)c(F)c(F)c1,6.56,3.06

# Test system: SF-268 CNS
# Assay: inhibition of tumour cell growth, NCI panel, 48 h
SMILES,TGI [µM],GI50 [µM]
CN(CC(=O)O)c1ncc2c(n1)-c1ccccc1SC2,> 100,–
CC(=O)Nc1ccc(C(=O)NN2C(=O)CSC2c2ccc([N+](=O)[O-])cc2)cc1 (centres undefined),> 100,–
CN(C(=O)C1=CCC2(CC1)OCCO2)c1ccccc1OS(=O)(=O)C(F)(F)F,97.6,–
CC(C)(C)NC(NC(C)(C)C)=C(/C=C(/Cl)[N+](=O)[O-])[N+](=O)[O-],> 100,–
O=C(Cc1ccc(/C=C/C(=O)c2ncc[nH]2)cc1)Nc1cc(F)c(F)c(F)c1,20.1,5.26

# Test system: SF-295 CNS
# Assay: inhibition of tumour cell growth, NCI panel, 48 h
SMILES,TGI [µM],GI50 [µM]
CN(CC(=O)O)c1ncc2c(n1)-c1ccccc1SC2,> 100,–
CC(=O)Nc1ccc(C(=O)NN2C(=O)CSC2c2ccc([N+](=O)[O-])cc2)cc1 (centres undefined),> 100,–
CC(=O)c1ccc(NCc2cc(O)ccc2O)cc1,34.6,–
CN(C(=O)C1=CCC2(CC1)OCCO2)c1ccccc1OS(=O)(=O)C(F)(F)F,> 100,–
CC(C)(C)NC(NC(C)(C)C)=C(/C=C(/Cl)[N+](=O)[O-])[N+](=O)[O-],> 100,–
O=C(Cc1ccc(/C=C/C(=O)c2ncc[nH]2)cc1)Nc1cc(F)c(F)c(F)c1,20.5,6.82

# Test system: SF-539 CNS
# Assay: inhibition of tumour cell growth, NCI panel, 48 h
SMILES,TGI [µM],GI50 [µM]
CN(CC(=O)O)c1ncc2c(n1)-c1ccccc1SC2,> 100,–
CC(=O)Nc1ccc(C(=O)NN2C(=O)CSC2c2ccc([N+](=O)[O-])cc2)cc1 (centres undefined),> 100,–
CC(=O)c1ccc(NCc2cc(O)ccc2O)cc1,33,–
CC(C)(C)NC(NC(C)(C)C)=C(/C=C(/Cl)[N+](=O)[O-])[N+](=O)[O-],> 100,–
O=C(Cc1ccc(/C=C/C(=O)c2ncc[nH]2)cc1)Nc1cc(F)c(F)c(F)c1,6.95,3.56

# Test system: SK-MEL-2 melanoma
# Assay: inhibition of tumour cell growth, NCI panel, 48 h
row,SMILES,TGI [µM]
1,CN(CC(=O)O)c1ncc2c(n1)-c1ccccc1SC2,> 100
2,CC(=O)Nc1ccc(C(=O)NN2C(=O)CSC2c2ccc([N+](=O)[O-])cc2)cc1 (centres undefined),> 100
3,CC(=O)c1ccc(NCc2cc(O)ccc2O)cc1,57.3
4,CN(C(=O)C1=CCC2(CC1)OCCO2)c1ccccc1OS(=O)(=O)C(F)(F)F,> 100
